According to PMC10223284, “Category-Based Toxicokinetic Evaluations of Data-Poor Per- and Polyfluoroalkyl Substances (PFAS) using Gas Chromatography Coupled with Mass Spectrometry” (Toxics, 2023):
Several values for one entry are separate records, joined by “and”; a condition that tells them apart may be missing. Equal values may be shown once. Read-outs that look alike come from different tables or passages of the source.

Experiments:
human plasma [1] = assay: Ultracentrifugation (UC) plasma protein binding assay, fraction unbound in plasma (fup)
human plasma [2] = assay: Chemical stability in plasma over the UC assay time course (T5hr/T1hr)
[3] = tested on: pooled human cryopreserved primary hepatocyte suspensions; assay: Hepatic metabolic stability (hepatocyte clearance) assay, substrate depletion; assay type: in vitro ADME
Procedure, shortened: (§1)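 Substrate depletion of 1 μM compound, 37 °C, with pooled human hepatocytes (50-donor, 50,000 cells/100 μL) in William's E; samples quenched in acetonitrile up to 240 min, triplicate time points. Intrinsic clearance (μL/min/million hepatocytes) and half-life derived from semi-log slope, background-adjusted using media-only and inactivated-cell controls; compounds with ≥50% abiotic loss at T120 excluded.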

[4] = as above; assay type: in vitro ADME, human; conditions: both sexes, human
Procedure, shortened: as §1

[5] = Abiotic loss in negative controls of the hepatocyte clearance assay (cell-free media, metabolically inactivated hepatocytes); assay type: in vitro ADME; conditions: for Hep_Stab_Fail: flag for stability failure in hepatocyte clearance assay controls (1 or Fst = fail, 0 = pass)
Procedure, shortened: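 Abiotic stability was checked with media-only and inactivated-hepatocyte controls, run at T0 and T240 or, on rerun, at more time points. Compound at 1 μM, 37 °C, acetonitrile quench. Loss rates served for background subtraction, and ≥50% loss by T120 meant exclusion.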

[6] = In vitro-in vivo extrapolation (IVIVE) to Css and administered equivalent dose (AED); parameters: species or system human
Description: Using the experimentally generated PPB (fraction unbound in plasma, fup) and hepatic Clint data, IVIVE was performed as previously described to calculate human steady-state plasma concentrations (Css). Briefly, experimental measures of fup are adjusted using blood:plasma partitioning information to estimate the fraction unbound in blood (fub). Experimental hepatocyte Clint data are scaled up to represent whole-liver clearance (L/h). […] Once estimated, these Css values are considered in conjunction with published in vitro bioactivity concentrations (i.e., lowest-observed effective concentrations, or LOECs) to calculate AEDs (Table 2). See Table S10 for all relevant IVIVE inputs, scalars, calculations, and outputs.

human primary cells = conditions: cited from earlier work
in vitro = conditions: both, human, plasma
human plasma [7] = tested on: human plasma
human plasma [8] = tested on: human plasma; remark: listed apart in the source
[9] = hepatocyte incubation, Rep 1-3, start conc 1000 nM

For NC(=O)C(F)(F)C(F)(F)C(F)(F)C(F)(F)F [Nonafluoropentanamide], the fup (human plasma [1]; human plasma, 10 μM, ultracentrifugation, 37 °C) was 0.1985, the Fup.Med (human plasma [1]; median fraction unbound in plasma, UC assay Level4) was 0.192 and the Fup.point (human plasma [1]; point estimate of fraction unbound in plasma, UC assay Level4) was 0.199. For the same molecule, the PPB_Stab_Fail (human plasma [2]; flag for stability failure in the plasma protein binding assay (1 = fail, 0 = pass)) was 0, the “Mean Stability (T5hr/T1hr)” value (human plasma [2]; mean over all UC runs and replicates, human plasma) was 0.975 and the Fstable.Med (human plasma [2]; median fraction stable in plasma, UC assay Level4) was 0.999. The “Stability (T5hr/ T1hr), Run-specific Avg” value (human plasma [2]; run-specific average) was 0.945, the “Concentration (nM), Time 0 min” value [3, 9] was 390.162 nM and 651.917 nM and 499.488 nM and the “Concentration (nM), Time 15 min” value [3, 9] was 214.882 nM and 126.475 nM and 193.144 nM. The “Concentration (nM), Time 30 min” value [3, 9] was 192.232 nM and 153.873 nM and 192.317 nM, the “Concentration (nM), Time 60 min” value [3, 9] was 74.6949 nM and 76.5031 nM and 55.8443 nM and the “Concentration (nM), Time 120 min” value [3, 9] was 22.6965 nM and 21.4336 nM and 13.3509 nM. The “Linear Regression Results, Best-Fit Values, Slope” value ([3]; hepatocyte time course) was -0.01747, the hepatocyte CLint at 1 μM ([4]; hepatocytes, background-subtracted, read-out: Bkgd-Sub Clearance (µL/min/106 hepatocytes)) was 26 µL/min/1e6 cells and the hepatocyte CLint at 1 μM ([4]; hepatocytes, hepatocyte clearance, Conc 1000 nM, not background adjusted, read-out: Unadj Clint) was 34.9 µL/min/1e6 cells. The hepatocyte CLint at 1 μM ([4]; hepatocytes, pooled human hepatocyte suspensions, 1 μM, read-out: In Vitro Clint) was 26 µL/min/1e6 cells, the hepatocyte CLint at 1 μM ([4]; hepatocytes, unadjusted hepatocyte intrinsic clearance, read-out: Unadj in vitro Clint) was 34.9 µL/min/1e6 cells and the hepatocyte CLint at 1 μM ([4]; hepatocytes, hepatocyte time course, NS = slope not significant, read-out: Linear Regression Results, Best-Fit Values, Clearance) was 34.9 µL/min/1e6 cells. For the same molecule, the half-life at 1 μM ([4]; hepatocytes, hepatocyte time course, NS = slope not significant, read-out: Linear Regression Results, Best-Fit Values, Half Life) was 39.7 min, the hepatocyte CLint at 1 μM ([4]; s9, Bayesian analysis median, 1 μM assay concentration (Table S9), read-out: Clint.1.Med) was 88.7 µL/min/1e6 cells and the half-life at 1 μM ([5]; both sexes, human, heat treated hepatocytes control, 0 vs 240 min, read-out: HT BkgdCl, Half Life) was 94.8 min. For the same molecule, the half-life at 1 μM ([5]; buffer, no cells control, 0 vs 240 min, read-out: No Cells BkgdCl, Half Life) was 155 min, the Hep_Stab_Fail [5] was 0 and the “HT BkgdCl, Slope” value ([5]; heat treated hepatocytes control, 0 vs 240 min) was -0.007311. The “No Cells BkgdCl, Slope” value ([5]; no cells control, 0 vs 240 min) was -0.004457, the “Negative Controls, No cells (NC), concentration at 0 min” value ([5]; no cells, Rep 1-3) was 364.995 nM and 386.302 nM and 296.545 nM and the “Negative Controls, No cells (NC), concentration at 240 min” value ([5]; no cells, Rep 1-3) was 132.756 nM and 122.614 nM and 103.779 nM. For the same molecule, the Css ([6]; Assuming 1 mg/kg/day dose rate, BW 70 kg) was 0.06 mg/L and 0.23 uM, the Clhep ([6]; IVIVE, hepatocyte Clint scaled to whole-liver clearance) was 47.130 L/h and the AED ([6]; administered equivalent dose from LOEC and Css) was 31.0338 mg/kg/day. For the same molecule, the Fub ([6]; fub=fup/(B:P), Fub set to 1 if needed) was 0.3609, the Css ([6]; human steady-state plasma concentration, assuming 1 mg/kg/day dosage) was 0.23 µM and the CLint ([6]; scaled with HPGL 110 mill cells/g, Vl 1596 g) was 4569125 µL/min. For the same molecule, the LOEC (human primary cells; BioSeek lowest-observed effect concentration used for AED) was 7.00 µM, the LOEC (human primary cells; minimum lowest-observed effect concentration, BioSeek platform) was 7 µM and the fraction unbound (in vitro; Fraction Unbound (fu), Run-specific Avg, run-specific average) was 0.2. The fraction unbound (in vitro; Fraction Unbound (fu), replicate A, individual replicate A of the UC run dated in c8) was 0.228, the fraction unbound (in vitro; Fraction Unbound (fu), replicate B, individual replicate B of the UC run dated in c8) was 0.178 and the fraction unbound (in vitro; Fraction Unbound (fu), replicate C, individual replicate C of the UC run dated in c8) was 0.191. For the same molecule, the fraction unbound (in vitro; Mean fu, fraction unbound in human plasma, ultracentrifugation, some values based on eLOQ) was 0.199.
Work on C=C(C)C(=O)OCC(F)(F)C(F)(F)C(F)(F)C(F)(F)C(F)(F)C(F)(F)C(F)(F)F [1H,1H-Perfluorooctyl methacrylate] yielded a Fup.Med (human plasma [7]) of 0.0638, a Fup.point (human plasma [7]) of 0.0665 and a Mean fu (human plasma [7]; human, plasma) of 0.1300. For the same molecule, the Hep_Stab_Fail [5] was 1, the Fstable.Med (human plasma [8]) was 0.042 and the Unstable (human plasma [8]) was “Y”. For the same molecule, the “% remaining_PPB” value (human plasma [8]; human, plasma) was 49% and the PPB_Stab_Fail (human plasma [8]; human, plasma) was 0.
